Like-named read-outs stand apart in the source and are kept apart here. One block for each molecule: values may come before it.
Key:
hOAT1 [1] = biological target: T1, hOAT1 (Homo sapiens, UniProt Q4U2R8); assay: Transport kinetics with the radioactive substrates in CHO^hOAT cells; type: cell-based; design: expressed in transfected cells; vector pIRESneo; details: radiolabeled substrates, 3 min at 37° C, mean ± standard error, three to five experiments
T1 sequence (Q4U2R8 1-550 isoform Q4U2R8-2): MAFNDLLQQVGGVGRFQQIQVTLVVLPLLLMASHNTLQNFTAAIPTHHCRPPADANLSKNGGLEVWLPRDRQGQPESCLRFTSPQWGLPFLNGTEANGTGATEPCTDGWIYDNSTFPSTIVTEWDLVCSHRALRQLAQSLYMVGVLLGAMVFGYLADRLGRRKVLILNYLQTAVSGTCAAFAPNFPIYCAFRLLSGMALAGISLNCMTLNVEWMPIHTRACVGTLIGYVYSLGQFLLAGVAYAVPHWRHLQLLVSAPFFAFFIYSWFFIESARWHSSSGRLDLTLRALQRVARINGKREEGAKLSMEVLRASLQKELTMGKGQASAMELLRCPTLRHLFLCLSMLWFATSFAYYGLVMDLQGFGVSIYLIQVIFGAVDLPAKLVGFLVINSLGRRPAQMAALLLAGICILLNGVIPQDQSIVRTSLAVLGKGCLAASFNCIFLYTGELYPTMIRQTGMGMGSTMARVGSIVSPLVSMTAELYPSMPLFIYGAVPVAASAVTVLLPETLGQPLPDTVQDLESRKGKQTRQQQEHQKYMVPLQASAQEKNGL
Description: The assays were carried out in 12-well plates with nearly confluent cells seeded 48 hours prior to each experiment. Immediately before the experiment, the cells were washed with PBS pre-warmed to 37° C. Pre-warmed Waymouth buffer ([…]) containing radiolabeled substrate at various concentrations was added to the cells and incubated for 3 min at 37° C. At the end of incubation, the cells were washed 3-times with ice-cold PBS (2 ml/well) and lysed directly on the plate in the presence of 0.4% Triton X-100 (0.5 ml/well) for at least 20 min. Subsequently, the wells were washed with an additional 0.5 ml of the detergent, the lysate and wash were combined, and radioactivity in each sample was determined after adding 6 ml of scintillation fluid (Beckman Instruments, Fullerton, Calif.). Km values were estimated by the linear regression from double reciprocal plots using Enzyme Kinetics software (ChemSW, Fairfield, Calif.).

hOAT1 [2] = biological target: T1, hOAT1; assay: Fluorescence-based inhibition assay: inhibition of 6-CFL uptake into CHO^hOAT cells; type: cell-based; design: expressed in transfected cells; vector pIRESneo
hOAT1 [3] = biological target: T1, hOAT1; assay: Fluorescent transport assay: accumulation of fluorescent organic anions in CHO^hOAT vs CHO^pIRES cells; details: 10 μM fluorescent anion, 10 min, room temperature
hOAT1 [4] = biological target: T1, hOAT1; details: for Vmax of hOAT1-specific transport / Km: room temperature; for Km: read-out: Km of hOAT1-specific transport
Description: First, a time-course of hOAT1-specific uptake of 6-CFL at various concentrations ranging from 0.31 to 20 μM was determined.
Kinetics of 6-CFL transport mediated by hOAT1. (a) Time course of hOAT1-specific uptake of 6-CFL. CHO^pIRES and CHO^hOAT cells in 96-well plates were incubated at room temperature with 6-CFL at concentrations ranging from 0.31 to 20 μM. At specific time points, the uptake was terminated by washing the cells with ice-cold PBS. After cell lysis, the intracellular fluorescence was determined and the net hOAT1-specific uptake was calculated after the subtraction of non-specific background uptake into CHO^pIRES cells determined under the identical conditions. […] (b) Saturation curve of the hOAT1-specific uptake of 6-CFL at 4-min time points. Km and Vmax values were estimated from the double-reciprocal plot (inset).

[5] = 4-min endpoints, double reciprocal plot

Km (hOAT1 [1]): 309 ± 106 µM
inhibition of 6-CFL transport (in words) (hOAT1 [2]): inhibited the transport of 6-CFL
SMILES: Nc1ccn(C[C@H]2COP(=O)(O)CO2)c(=O)n1 [Cyclic prodrug of cidofovir, [((S)-1-2-hydroxy-2-oxo-1,4,2-dioxaphosphorinan-5-yl)methyl]cytosine]

SMILES: O=C(O)c1ccc2c(c1)C1(OC2=O)c2ccc(O)cc2Oc2cc(O)ccc21 [6-CFL, 6-carboxyfluorescein]
accumulation in CHO^hOAT cells relative to control CHO^pIRES cells (hOAT1 [3]): approximately 15 fold
transport efficiency (Vmax/Km ratio) (hOAT1 [4]): comparable to that of PAH
Vmax of hOAT1-specific transport (hOAT1 [4]; 2-min endpoints): 19.7 pmol/10^6 cells·min
Vmax of hOAT1-specific transport (hOAT1 [4]; [5]): 17.8 pmol/10^6 cells·min
Km (hOAT1 [4]; 2-min endpoints): 3.95 µM
Km (hOAT1 [4]; [5]): 3.93 µM

inhibition of 6-CFL transport (in words) (hOAT1 [2]): inhibited the transport of 6-CFL
SMILES: CC1=C(C(=O)O)N2C(=O)[C@@H](NC(=O)[C@H](N)C3=CCC=CC3)[C@H]2SC1 [Cephradine]

SMILES: O=C(O)c1ccc2c(c1)C(=O)OC21c2ccc(O)cc2Oc2cc(O)ccc21 [5-CFL, 5-carboxyfluorescein]
hOAT1-mediated transport / accumulation (in words) (hOAT1 [3]; CHO^hOAT and CHO^pIRES cells): accumulated at very low levels both in CHO^hOAT and CHO^pIRES cells

inhibition of 6-CFL transport (in words) (hOAT1 [2]): inhibited the transport of 6-CFL
SMILES: Nc1ccn(C[C@@H](CO)OCP(=O)(O)O)c(=O)n1 [Cidofovir, (S)-1-(3-hydroxy-2-phosphonylmethoxypropyl)cytosine]

inhibition of 6-CFL transport (in words) (hOAT1 [2]): inhibited the transport of 6-CFL
SMILES: CC(C(=O)O)c1cccc(C(=O)c2ccccc2)c1 (centres unmarked) [Ketoprofen]

SMILES: Nc1ncnc2c1ncn2CCOCP(=O)(O)O [Adefovir, 9-(2-phosphonylmethoxyethyl)adenine]
Km (hOAT1 [1]): 23.8 ± 4.2 µM
inhibition of 6-CFL transport (in words) (hOAT1 [2]): inhibited the transport of 6-CFL

Reference: patent US6479231B1, “Fluorescence-based assay for the interaction of small molecules with the human renal organic anion transporter 1 (hOAT1)” (Gilead Sciences, Inc., priority 1999, dated 2002)
